What was measured:
[1] = test system: Bclxl expression in the thymus; experiment: Bclxl expression in thymus after oral dosing (QPCR); type: in vivo, mouse; conditions: 100 mg/kg PO, C57Bl/6 female mice; S5 Fig
Protocol: Supplementary file pone.0248034.s009.tif: S5 Fig RORγt inhibitors reduce Bclxl expression in thymus of rodents. C57Bl/6 female mice were dosed PO with 100 mg/kg Compound 1, 2 or 3. Thymic tissues were collected from separate cohorts at 2, 8, 16 and 24 hours post-dose (n = 3 mice/timepoint). RNA was extracted from thymic tissues and Bclxl expression measured by QPCR. […] Time zero (‘0’) used as normalization timepoint and set to 1.0 RQ and mean set at 100% for % inhibition calculation. One-way ANOVA with Bonferroni correction for multiple comparisons used for statistical significance calculations. (TIF) Click here for additional data file.

[2] = test system: IMQ-induced skin inflammation in Balb/c mice; experiment: Imiquimod (IMQ)-induced skin inflammation model; type: in vivo, mouse; conditions: for ear thickness: IMQ vehicle 0.21 ± 0.03 mm
Protocol: For IMQ-induced skin inflammation, wild-type (WT) Balb/c female mice, 5–8 weeks of age, were purchased from Charles River Laboratories. All mice were housed in pathogen-free conditions at Bristol Myers Squibb (Cambridge, MA). Aldara cream containing 5% imiquimod (Patterson Veterinary Supply, Inc; Devens, MA) was applied to the ears daily (11–14 mg) for 3 days. Mice were treated twice daily (BID) on days 1–4 per os (PO) with vehicle (0.5% methylcellulose/0.25% Tween80) or RORγt inhibitors at indicated doses immediately prior to Aldara application. Ear thickness was measured using micro-calipers. Tissues were harvested on day 4, 2 hours following the last compound dose. Naïve mice are completely untreated, receiving neither control vehicle for IMQ nor Compound.
For RNA isolation & gene expression, ears are collected on day 4 in RNAlater (Qiagen) and stored at 4°C until processed. Ears were homogenized using Procellys 24 homogenizer & hard tissue homogenizing beads (Bertin Instruments), 2 cycles of 30 seconds @ 6000 rpm in RLT lysis buffer according to manufacturer’s instructions. RNA was isolated using RNAeasy Plus MiniPrep columns (Qiagen) and cDNA generated using SuperScript VILO cDNA Synthesis kit (Invitrogen). Gene expression was quantified using TaqMan Fast Master Mix & and TaqMan FAM-MGB probe sets (Applied Biosystems): Gapdh, Mm99999915_g1, Il17a, Mm00439618_m1, Il17f, Mm00521423_m1, Il22, Mm01226722_g1 & Bclxl, Mm00437783_m1. QPCR reactions were run on QuantStudio 7 instrument. Relative quantification and fold changes were calculated using ddCT values against Gapdh and normalized to control-treated animals. For PDAC xenografts, RNA was isolated from tumor sections using Qiagen RNeasy kit (cat#74106), then cDNA was prepared using 2 μg of RNA and the high capacity RNA to cDNA kit (Applied Biosystems, cat#4387406) as per manufacturer’s instructions. Biomarker expression was determined using Taqman gene expression probes (S1 Table) and Universal master mix (ThermoFisher Scientific cat#4305719) with expression levels normalized to Gapdh.
For cytokine production, ears are removed, split in half using forceps and floated, dermis side-down, in DMEM media (Gibco) and incubated at 37° C for 24 hours. Following incubation, media was removed and cytokine production assessed by Luminex assay (Bio-Rad Laboratories).

[3] = test system: MOG35-55-induced EAE in C57BL/6 mice; experiment: Experimental autoimmune encephalomyelitis (EAE) model; type: in vivo, mouse; conditions: 3 mg/kg QD
Protocol: EAE studies were conducted at Hooke Laboratories. WT female C57BL/6 mice (Taconic Labs) 9 weeks of age were inoculated on day 0 with MOG35-55 peptide (Hooke Kit™ MOG35-55/CFA Emulsion PTX) (EK-2110, Hooke Laboratories, Lawrence MA) followed by intraperitoneal (IP) injections of pertussis toxin at 2 and 24 hours. Mice were treated twice daily (BID, starting at day 1) per os (PO) with vehicle (0.5% MC/0.25% Tween80) or RORγt inhibitors at indicated doses. FTY720 (Gilenya) was dosed once daily (QD) at 3 mg/kg starting at day 1. EAE clinical scores were evaluated daily and scored from 0–5 according to Hooke Lab EAE scoring guidelines http://hookelabs.com/services/cro/eae/MouseEAEscoring.html. Mean clinical scores & body weight loss were assessed and statistical significance calculated by Wilcoxon’s non-parametric or 2-tailed Student’s t-test, respectively. All studies performed were approved in accordance with the Institutional Animal Care and Use Committee of Bristol Myers Squibb and complied according to Bristol Myers Squibb guidelines.

[4] = test system: psoriasis patients; set-up: method as in PMID 29936103; conditions: cited from earlier work
[5] = test system: PDAC PDO model T020P; experiment: In vitro organoid growth assay (CellTiter-Glo 3D), T020P; type: cell-based, human; conditions: Homo sapiens, 72 h; treated 3 days post-plating; T020P
Protocol: (§1) Patient derived organoids were established as previously described. Briefly, PDX tumor chunks were minced then enzymatically digested into single cells by using a tumor dissociation Kit (Miltenyi, Cat# 130-095-929). Mouse and human cells were separated through magnetic separation, and isolated tumor cells were cultured on Matrigel-coated dishes. […]
(§2) Organoids were isolated and dissociated as described above. Cell numbers were counted by trypan blue exclusion and 5000 cells per well were plated on the Matrigel coated and pre-warmed 96-well plates. […] 100 μl of CellTiter-Glo® 3D reagent (Promega cat# G9682) was added to each well after desired time points and luminescence signal measured after 30 minutes.
(§3) Supplementary file pone.0248034.s010.tif: S6 Fig Schematic of Patient-derived organoids (PDO) growth & formation assays. […] After the indicated treatment schedule organoid growth or formation was assessed by CTG assay. […]

[6] = test system: PDAC PDO model T031P; experiment: In vitro organoid formation assay (CellTiter-Glo 3D); type: cell-based; conditions: Homo sapiens, PDO model not named in the sentence (Fig 8B: T020P and T031P)
Protocol: Patient derived organoids were established as previously described. Briefly, PDX tumor chunks were minced then enzymatically digested into single cells by using a tumor dissociation Kit (Miltenyi, Cat# 130-095-929). Mouse and human cells were separated through magnetic separation, and isolated tumor cells were cultured on Matrigel-coated dishes. Organoid cultures were maintained by growing on Matrigel in human complete maintenance media: Advanced DMEM/F12 media (Life Technology, Cat# 12634028), 10 mM HEPES (Life Technology, Cat# 15630–080), 1X Glutamax (Life Technology, Cat# 35050–061), 1X Antibiotic-Antimycotic (Life Technology, Cat# 15240–062), 10 mM Nicotinamide (Sigma-Aldrich, Cat# N0636-500G), 250 ng/mL R-Spondin-1 (Peprotech, Cat# 120–38), 100 ng/mL Noggin (Peprotech, Cat# 120-10C), 50 ng/mL EGF (Peprotech, Cat# AF-100-15), 100 ng/mL FGF10 (Peprotech, Cat# 100–26), […] (Sigma-Aldrich, Cat# G9020), 500 nM A83-01 (Sigma, Cat# SML0788), 20 μM Y-27632 (LC Laboratories, Cat# Y-5301), 1X B27 (Life Technology, Cat# 12587010), 10 ng/mL Wnt3a (R&D Systems, Cat# 5036-WN-010), 0.1% Methylcelluose (R&D Systems, Cat# HSC001) and Plasmocin (Invivogen, Cat# Ant-mpp) and were passaged every 10–14 days. Organoids were isolated from Matrigel (Corning, Cat# 08-774-406) in a cell recovery solution (Corning, Cat# CB-40253). Spheroid clusters were then dissociated into a single cell suspension with TrypLE (Gibco, Cat# 12605). […]
as §2, §3

[7] = test system: human and mouse xenograft tumor growth; set-up: method as in PMID 30955884; conditions: modulation of RORγt activity; cited from earlier work
[8] = test system: PDAC PDO model T031P; experiment: In vitro organoid growth assay (CellTiter-Glo 3D), T031P; type: cell-based, human; conditions: Homo sapiens, 72 h, treated 3 days post-plating
Protocol: as §1, §2, §3

[9] = test system: plaque psoriasis patients; conditions: cited from earlier work
[10] = test system: KP/C pancreatic tumors in C57Bl/6 mice; experiment: In vivo tumor growth suppression, KP/C mouse model; conditions: single agent vs vehicle; 28 days of dosing
Protocol: Pancreatic tumor chunks from KP/C mice [20] on C57Bl/6 background were inoculated subcutaneously in the flank of syngeneic mice. […] Tumor volumes and body weight were measured twice each week.
To test whether inhibition of RORγt can lead to tumor growth inhibition we utilized the Kras^G12D/+/Trp53^null/Pdx1-cre (KP/C) mouse model of pancreatic cancer [20]. C57Bl/6 mice were inoculated in the flank with KP/C tumor chunks and enrolled in the study when the average tumor volume reached 200 mm^3. […] To evaluate target engagement, we examined changes in expression of a subset of potential RORγt target genes in tumor samples.

Question: Which “Bclxl expression in the thymus” value [1] does the source give for `O=C(O)[C@@H]1CCN(c2nn(C(=O)c3c(Cl)cccc3C(F)(F)F)c3cccc(F)c23)C[C@H]1O` [Compound 1] here?
Answer: Its value is “modulation of Bclxl expression in the thymus”.

Question: And the ear thickness ([2]; day 4, 45 mg/kg PO)?
Answer: Its ear thickness is 0.17 ± 0.02 mm.

Question: And the ear thickness ([2]; day 4, 75 mg/kg PO)?
Answer: The ear thickness was 0.16 ± 0.008 mm.

Question: What about the “Th17-cytokine gene expression (Il17a, Il17f, Il22) in ear skin” value ([2]; day 4, all dose levels tested (30, 45, 75 mg/kg PO)) of the same molecule?
Answer: Its value is “reduced Th17-cytokine gene expression at all dose levels tested”.

Question: And the “IMQ-induced IL-17A cytokine production in ear tissues” value ([2]; ear tissue floats cultured 24 hours ex vivo, Luminex)?
Answer: The value was “reduced IMQ-induced IL-17A cytokine production”.

Question: What does the source list for `O=C(O)[C@@H]1CCC(c2nn(C(=O)c3c(Cl)cccc3C3CC3)c3cccc(F)c23)=C[C@H]1O` [Compound 2]?
Answer: Bclxl expression in the thymus [1]: modulation of Bclxl expression in the thymus; Th17-dependent gene expression and inflammation ([2]; oral administration, S4 Fig): inhibition of Th17-dependent gene expression and inflammation

Question: Which results are given for `CCCCCCCCc1ccc(CCC(N)(CO)CO)cc1` [FTY720, reference compound]?
Answer: disease onset ([3]; vehicle day 12): 20 days; EAE clinical score (0-5) ([3]; vehicle peak 3.08 ± 0.28): 0.54 ± 0.234

Question: For `CCOc1cc([C@@H](CS(C)(=O)=O)N2C(=O)c3cccc(NC(C)=O)c3C2=O)ccc1OC` [Otezla], which “reduction of production of IL-17A, IL-17F, IL-22 and TNFα” value ([4]; Week 4) is on record?
Answer: Its value is 40–50%.

Question: And the PASI-75 response rate ([4]; Week 16)?
Answer: Its PASI-75 response rate is “approximately 30%”.

Question: With `OC(c1ccc(-c2ccc(CN3CCN(Cc4ccncc4)CC3)cc2)c(F)c1)(C(F)(F)F)C(F)(F)F` [SR2211, reference compound] as the molecule, how does the IC50 [5] read?
Answer: Its IC50 is about 3000 nM.

Question: And the IC50 [6]?
Answer: The IC50 was about 1000 nM.

Question: And the “human and mouse xenograft tumor growth” value [7]?
Answer: The value was “sufficient to inhibit”.

Question: And the IC50 [8]?
Answer: The IC50 was about 3000 nM.

Question: Which PASI-75 response rate ([9]; Week 4) does the source give for `CCS(=O)(=O)c1ccc(CNC(=O)c2cnc3c(c2)CN(C[C@H]2CC[C@H](C(F)(F)F)CC2)[C@H]3C(C)C)nc1` [VTP-43742] here?
Answer: Its PASI-75 response rate is 25–30%.

Question: And the “reduction in IL-17A and IL-17F levels in plasma” value [9]?
Answer: Its value is 50–75%.

Question: Which tumor volume [10] does the source give for `N.N.[Cl][Pt][Cl]` [cisplatin, reference compound] here?
Answer: The tumor volume was “significantly reduced”.
